# Assays:
# [1] = biological target: T1, serotonine transporter (SERT) receptor (Homo sapiens, UniProt P31645); test: Binding assay SERT (h), [3H]imipramine, CHO cells; settings: read-out: SERT [%]
# T1 construct: expressed in transfected cells; host or cells: CHO cells
# Method in brief: (§1)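 At 1×10^−6 M, compounds were assessed for their effect on specific radioligand binding, computed as total less nonspecific binding (excess unlabelled ligand present).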
# [2] = biological target: serotoninergic 5-HT2A receptor (Homo sapiens, UniProt P28223); test: Binding assay 5-HT2A (h), [3H]ketanserin, HEK-293 cells; design: expressed in transfected cells; host or cells: HEK-293 cells; settings: read-out: 5-HT2A
# serotoninergic 5-HT2A receptor, sequence (P28223 whole entry): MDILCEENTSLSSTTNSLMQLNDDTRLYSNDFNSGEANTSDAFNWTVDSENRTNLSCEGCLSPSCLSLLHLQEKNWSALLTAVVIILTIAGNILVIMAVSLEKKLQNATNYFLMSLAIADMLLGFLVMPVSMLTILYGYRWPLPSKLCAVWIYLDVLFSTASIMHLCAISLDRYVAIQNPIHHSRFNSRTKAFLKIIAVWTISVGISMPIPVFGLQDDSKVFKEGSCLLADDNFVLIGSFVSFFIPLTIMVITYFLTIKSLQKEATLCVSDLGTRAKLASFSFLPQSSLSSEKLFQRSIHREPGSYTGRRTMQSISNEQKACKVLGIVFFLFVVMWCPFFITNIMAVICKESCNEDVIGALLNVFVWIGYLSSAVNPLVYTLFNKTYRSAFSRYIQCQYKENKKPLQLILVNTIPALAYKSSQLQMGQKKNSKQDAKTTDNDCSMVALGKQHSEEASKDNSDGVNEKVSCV
# Method in brief: as §1
# [3] = biological target: T2, serotoninergic 5-HT1A receptor (Homo sapiens, UniProt P08908); test: Binding assay 5-HT1A (h), [3H]8-OH-DPAT, HEK-293 cells; design: expressed in transfected cells; host or cells: HEK-293 cells; settings: read-out: 5-HT1A
# T2 sequence (P08908 1-422): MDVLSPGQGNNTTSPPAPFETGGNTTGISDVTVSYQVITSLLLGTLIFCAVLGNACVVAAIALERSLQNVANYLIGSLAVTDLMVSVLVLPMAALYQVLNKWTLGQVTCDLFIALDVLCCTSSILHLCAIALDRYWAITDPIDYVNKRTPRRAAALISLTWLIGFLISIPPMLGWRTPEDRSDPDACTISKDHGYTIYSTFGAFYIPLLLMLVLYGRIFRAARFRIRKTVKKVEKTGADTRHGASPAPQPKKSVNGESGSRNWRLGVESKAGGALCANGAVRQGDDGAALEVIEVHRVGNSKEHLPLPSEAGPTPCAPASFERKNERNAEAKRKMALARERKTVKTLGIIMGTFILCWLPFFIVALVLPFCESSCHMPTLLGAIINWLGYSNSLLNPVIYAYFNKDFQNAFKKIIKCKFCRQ
# Method in brief: as §1
# dopaminergic D3 receptor = dopaminergic D3 receptor (Homo sapiens, UniProt P35462); test: Binding assay D3 (h), [3H]methyl-spiperone, CHO cells; design: expressed in transfected cells; host or cells: CHO cells; settings: read-out: D3 [%]
# dopaminergic D3 receptor, sequence (P35462 whole entry): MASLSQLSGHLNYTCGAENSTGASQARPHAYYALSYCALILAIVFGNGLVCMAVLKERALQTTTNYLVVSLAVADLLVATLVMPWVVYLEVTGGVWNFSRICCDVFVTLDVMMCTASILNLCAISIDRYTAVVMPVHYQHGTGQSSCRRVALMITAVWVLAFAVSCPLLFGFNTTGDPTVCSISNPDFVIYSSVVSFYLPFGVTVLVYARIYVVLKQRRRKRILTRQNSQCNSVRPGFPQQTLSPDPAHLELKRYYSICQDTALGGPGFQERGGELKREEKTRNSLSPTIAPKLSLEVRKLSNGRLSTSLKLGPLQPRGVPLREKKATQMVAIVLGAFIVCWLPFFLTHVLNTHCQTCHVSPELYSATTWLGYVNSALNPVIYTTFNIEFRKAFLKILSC
# Method in brief: as §1
# dopaminergic D2 receptor = dopaminergic D2 receptor (Homo sapiens, UniProt P14416); test: Binding assay D2S (h), [3H]methyl-spiperone, HEK-293 cells; design: expressed in transfected cells; host or cells: HEK-293 cells; settings: read-out: D2 [%]
# dopaminergic D2 receptor, sequence (P14416 1-414 isoform P14416-2): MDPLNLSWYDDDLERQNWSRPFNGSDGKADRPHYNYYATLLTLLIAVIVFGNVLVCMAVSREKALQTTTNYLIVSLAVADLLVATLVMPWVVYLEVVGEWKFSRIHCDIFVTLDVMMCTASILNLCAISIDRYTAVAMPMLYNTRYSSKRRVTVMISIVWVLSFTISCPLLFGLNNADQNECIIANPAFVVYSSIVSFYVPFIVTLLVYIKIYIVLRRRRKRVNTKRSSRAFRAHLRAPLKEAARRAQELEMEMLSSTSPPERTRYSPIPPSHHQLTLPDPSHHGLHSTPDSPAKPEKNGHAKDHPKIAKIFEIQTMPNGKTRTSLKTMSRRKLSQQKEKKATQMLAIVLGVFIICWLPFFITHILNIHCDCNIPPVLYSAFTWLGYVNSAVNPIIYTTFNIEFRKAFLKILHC
# Method in brief: as §1
# adrenergic α1 receptor = test: Binding assay α1 (non-selective), [3H]prazosin, rat cerebral cortex; settings: percent inhibition of control specific binding; compounds tested at 1×10^−6 M
# Method in brief: as §1
# [4] = biological target: serotoninergic 5-HT6 receptor (Homo sapiens, UniProt P50406); test: Binding assay 5-HT6 (h), [3H]LSD, CHO cells; design: expressed in transfected cells; host or cells: CHO cells; settings: read-out: 5-HT6
# serotoninergic 5-HT6 receptor, sequence (P50406 whole entry): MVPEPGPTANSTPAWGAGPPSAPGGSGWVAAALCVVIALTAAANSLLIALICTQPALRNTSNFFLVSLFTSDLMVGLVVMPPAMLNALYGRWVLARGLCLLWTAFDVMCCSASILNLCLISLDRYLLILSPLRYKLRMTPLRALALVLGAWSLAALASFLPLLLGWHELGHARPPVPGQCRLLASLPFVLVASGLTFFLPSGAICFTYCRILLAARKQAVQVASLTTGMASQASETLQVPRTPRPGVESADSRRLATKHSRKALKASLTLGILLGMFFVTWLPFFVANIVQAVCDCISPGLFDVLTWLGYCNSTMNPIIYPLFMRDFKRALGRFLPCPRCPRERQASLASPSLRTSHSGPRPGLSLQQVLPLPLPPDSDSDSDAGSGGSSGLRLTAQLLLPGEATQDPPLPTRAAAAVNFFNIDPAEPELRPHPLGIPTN
# Method in brief: as §1
# [5] = biological target: serotoninergic 5-HT7 receptor (Homo sapiens, UniProt P34969); test: Binding assay 5-HT7 (h), [3H]LSD, CHO cells; design: expressed in transfected cells; host or cells: CHO cells; settings: read-out: 5-HT7
# serotoninergic 5-HT7 receptor, sequence (P34969 whole entry): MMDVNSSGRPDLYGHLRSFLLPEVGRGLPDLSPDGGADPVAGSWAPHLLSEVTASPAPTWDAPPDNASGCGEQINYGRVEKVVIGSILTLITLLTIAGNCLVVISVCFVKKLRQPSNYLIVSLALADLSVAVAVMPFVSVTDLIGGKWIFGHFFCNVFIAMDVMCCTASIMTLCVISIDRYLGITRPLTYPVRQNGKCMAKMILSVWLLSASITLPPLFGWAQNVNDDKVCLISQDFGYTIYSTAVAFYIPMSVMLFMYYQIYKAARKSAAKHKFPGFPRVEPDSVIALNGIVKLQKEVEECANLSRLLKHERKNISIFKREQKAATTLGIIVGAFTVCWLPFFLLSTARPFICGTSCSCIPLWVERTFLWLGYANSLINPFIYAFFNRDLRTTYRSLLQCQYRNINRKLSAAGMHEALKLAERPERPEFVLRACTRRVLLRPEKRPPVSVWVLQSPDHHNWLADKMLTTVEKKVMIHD
# Method in brief: as §1
# T1 sequence (P31645 whole entry): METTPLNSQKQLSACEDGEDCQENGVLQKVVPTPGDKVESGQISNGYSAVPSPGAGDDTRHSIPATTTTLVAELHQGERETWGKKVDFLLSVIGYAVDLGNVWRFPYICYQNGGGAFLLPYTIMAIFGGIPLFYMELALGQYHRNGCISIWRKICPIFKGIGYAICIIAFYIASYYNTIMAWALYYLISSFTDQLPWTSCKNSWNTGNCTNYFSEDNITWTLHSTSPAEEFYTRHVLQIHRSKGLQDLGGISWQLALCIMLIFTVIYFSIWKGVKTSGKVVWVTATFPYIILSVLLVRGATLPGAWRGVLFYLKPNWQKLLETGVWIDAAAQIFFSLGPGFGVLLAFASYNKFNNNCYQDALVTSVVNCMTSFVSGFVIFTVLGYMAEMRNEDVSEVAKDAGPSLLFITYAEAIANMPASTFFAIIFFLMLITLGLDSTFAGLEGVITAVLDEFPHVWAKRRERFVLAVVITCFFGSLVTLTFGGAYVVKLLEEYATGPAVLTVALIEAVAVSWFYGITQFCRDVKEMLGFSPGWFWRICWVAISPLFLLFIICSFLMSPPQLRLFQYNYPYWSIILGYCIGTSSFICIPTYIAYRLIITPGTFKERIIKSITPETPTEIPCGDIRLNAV
SMILES,inhibition at 1 µM [1],inhibition at 1 µM [2],inhibition at 1 µM [3],inhibition at 1 µM (dopaminergic D3 receptor),inhibition at 1 µM (dopaminergic D2 receptor),α1 [%] (adrenergic α1 receptor),inhibition at 1 µM [4],inhibition at 1 µM [5]
"O=S(=O)(NCCCN1CCC(c2noc3cc(F)ccc23)CC1)c1ccc(C(F)(F)F)cc1 [Compound 334, N-[3-[4-(6-Fluoro-1,2-benzoxazol-3-yl)piperidin-1-yl]propyl]-4-(trifluoromethyl)-benzenesulphonamide]",30%,90%,86%,96%,75%,105%,98%,85%
"O=S(=O)(NCCCCN1CCN(c2cccc3c2OCCO3)CC1)c1ccc(-c2ccccc2)cc1 [Compound 396, N-[4-[4-(2,3-Dihydro-1,4-benzodioxin-5-yl)piperazin-1-yl]butyl]-4-phenylbenzenesulphonamide]",16%,58%,85%,86%,68%,84%,31%,88%
"O=S(=O)(NCCCCN1CCC(c2noc3cc(F)ccc23)CC1)c1ccc(F)cc1 [Compound 294, 4-Fluoro-N-[4-[4-(6-fluoro-1,2-benzoxazol-3-yl)piperidin-1-yl]butyl]benzenesulphonamide]",-14%,95%,23%,95%,105%,101%,72%,94%
"Cc1[nH]c2ccc(Cl)cc2c1C1=CCN(CCNS(=O)(=O)c2cccc3ccccc23)CC1 [Compound 447, N-[2-[4-(5-Chloro-2-methyl-1H-indol-3-yl)-3,6-dihydro-2H-pyridin-1-yl]ethyl]-naphthalene-1-sulphonamide]",23%,19%,42%,-17%,3%,1%,106%,34%
"Cc1[nH]c2ccc(Cl)cc2c1C1=CCN(CCCNS(=O)(=O)c2cccc(Cl)c2)CC1 [Compound 138, N-[3-[4-(5-Chloro-2-methyl-1H-indol-3-yl)-3,6-dihydro-2H-pyridin-1-yl]propyl]-3-chlorobenzenesulphonamide]",25%,62%,54%,57%,40%,8%,95%,52%
"CC(C)(C)c1ccc(S(=O)(=O)NCCCCN2CCN(c3nsc4ccccc34)CC2)cc1 [Compound 233, N-[4-[4-(1,2-Benzothiazol-3-yl)piperazin-1-yl]butyl]-4-tert-butyl-benzenesulphonamide]",5%,100%,53%,76%,83%,94%,76%,93%
"O=S(=O)(NCCCCN1CCC(c2noc3cc(F)ccc23)CC1)c1c[nH]c2ncccc12 [Compound 323, N-[4-[4-(6-Fluoro-1,2-benzoxazol-3-yl)piperidin-1-yl]butyl]-1H-pyrrolo[2,3-b]pyridine-3-sulphonamide]",41%,96%,45%,96%,105%,103%,92%,93%
"O=S(=O)(NCCCN1CCC(c2noc3cc(F)ccc23)CC1)c1ccc(OC(F)(F)F)cc1 [Compound 336, N-[3-[4-(6-Fluoro-1,2-benzoxazol-3-yl)piperidin-1-yl]propyl]-4-(trifluoromethoxy)-benzenesulphonamide]",41%,100%,61%,96%,97%,107%,92%,92%
"O=S(=O)(NCCCCN1CCN(c2cccc3c2OCCO3)CC1)c1ccc2ccccc2c1 [Compound 386, N-[4-[4-(2,3-Dihydro-1,4-benzodioxin-5-yl)piperazin-1-yl]butyl]naphthalene-2-sulphonamide]",-5%,65%,96%,88%,70%,96%,1%,82%
"O=S(=O)(NCCCCN1CCN(c2cccc3c2OCCO3)CC1)c1cc2ccccc2s1 [Compound 399, N-[4-[4-(2,3-Dihydro-1,4-benzodioxin-5-yl)piperazin-1-yl]butyl]benzothiophene-2-sulphonamide]",-22%,82%,99%,92%,79%,99%,23%,96%
"O=S(=O)(NCCCN1CCN(c2nsc3ccccc23)CC1)c1c[nH]c2ncccc12 [Compound 270, N-[3-[4-(1,2-Benzothiazol-3-yl)piperazin-1-yl]propyl]-1H-pyrrolo[2,3-b]pyridine-3-sulphonamide]",12%,89%,75%,82%,74%,88%,70%,82%
"O=C1COc2c(cccc2N2CCN(CCCCNS(=O)(=O)c3cccc(F)c3)CC2)N1 [Compound 211, 3-Fluoro-N-[4-[4-(3-oxo-4H-1,4-benzoxazin-8-yl)piperazin-1-yl]butyl]benzenesulphonamide]",33%,32%,86%,102%,81%,80%,32%,81%
"O=S(=O)(NCCCCN1CCN(c2noc3ccccc23)CC1)c1ccc(Cl)cc1 [Compound 273, N-[4-[4-(1,2-Benzoxazol-3-yl)piperazin-1-yl]butyl]-4-chlorobenzenesulphonamide]",22%,95%,46%,85%,88%,101%,74%,97%
"O=S(=O)(NCCCN1CCC(c2noc3cc(F)ccc23)CC1)c1ccc2c(c1)OCO2 [Compound 354, N-[3-[4-(6-Fluoro-1,2-benzoxazol-3-yl)piperidin-1-yl]propyl]-1,3-benzodioxole-5-sulphonamide]",6%,86%,59%,88%,83%,103%,86%,96%
"O=S(=O)(NCCCCN1CCN(c2cccc3c2OCCO3)CC1)c1ccc(F)c(F)c1 [Compound 389, N-[4-[4-(2,3-Dihydro-1,4-benzodioxin-5-yl)piperazin-1-yl]butyl]-3,4-difluorobenzenesulphonamide]",44%,56%,118%,85%,50%,93%,19%,93%
"O=S(=O)(NCCCN1CCN(c2cccc3c2OCCO3)CC1)c1ccc(F)cc1 [Compound 408, N-[3-[4-(2,3-Dihydro-1,4-benzodioxin-5-yl)piperazin-1-yl]propyl]-4-fluorobenzenesulphonamide]",-18%,-50%,101%,70%,40%,70%,35%,83%
"O=S(=O)(NCCCCN1CCN(c2nsc3ccccc23)CC1)c1cccc(C(F)(F)F)c1 [Compound 235, N-[4-[4-(1,2-Benzothiazol-3-yl)piperazin-1-yl]butyl]-3-(trifluoromethyl)benzenesulphonamide]",8%,80%,86%,87%,103%,95%,82%,93%

# — patent publication US8822517B2, “Arylosulfonamides for the treatment of CNS diseases” (Adamed SP. Z O.O., priority 2010, dated 2014)
